# Laboratory results from article PMC9127750, “Structure-based design of CDC42 effector interaction inhibitors for the treatment of cancer” (Cell reports, 2022).
# Where “and” joins values, the source holds several entries; their conditions need not be identical. Equal values may be shown once.
# Tested on: WM3248 melanoma cells, 486 antibodies
# Experiment: Reverse phase protein arrays (RPPA);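 as to CA9.R.C RPPA level: ratio of treated to vehicle (0 µM) normalized linear protein signal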;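 as to CD171.M.V RPPA level: ratio of treated to vehicle (0 µM) normalized linear protein signal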;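 as to CREB pS133.R.C RPPA level: ratio of treated to vehicle (0 µM) normalized linear protein signal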;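 as to Cyclin.B1.R.V RPPA level: ratio of treated to vehicle (0 µM) normalized linear protein signal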
# Type: cell-based, Human
# Conditions: 5 uM
# Description: Pellets were snap frozen in liquid nitrogen and shipped to MD Anderson Cancer Center core RPPA facility for RPPA analysis (Table S5). Three biological replicates for each sample were generated.
# Nomenclatures on the RPPA heatmaps: name_of_antibody.species_of_antibody.status_of_antibody. V - antibody validated; C - validation of antibody in progress; Q - antibody nonspecific; E – under evaluation; antibodies raised in M - mouse, G - goat, R - rabbit, or T - rat.
smiles,measurement,setting,value
"CN(C)c1cccc(Nc2cc(-c3ccccc3)nc(C3CCNCC3)n2)c1 [ARN22089, N1,N1-dimethyl-N3-(6-phenyl-2-(piperidin-4-yl)pyrimidin-4-yl)benzene-1,3-diamine]","RPPA signal, antibody Vinculin.M.V",individual replicates,0.948 and 1.034 and 1.010
same,"RPPA signal, antibody WIPI1.R.C",individual replicates,1.016 and 0.609
same,"RPPA signal, antibody WIPI2.R.C",individual replicates,0.917 and 1.190 and 1.151
same,"RPPA signal, antibody WTAP.R.V",individual replicates,1.007 and 0.770 and 0.970
same,"RPPA signal, antibody Wee1.R.C",individual replicates,0.852 and 1.576 and 1.161
same,"RPPA signal, antibody Wee1_pS642.R.C",individual replicates,0.857 and 1.327 and 1.158
same,"RPPA signal, antibody XBP.1.G.C",individual replicates,1.019 and 0.701
same,"RPPA signal, antibody XIAP.R.C",individual replicates,1.016 and 1.128
same,"RPPA signal, antibody XPA.M.V",individual replicates,1.083 and 0.917 and 1.035
same,"RPPA signal, antibody XPF.R.C",individual replicates,0.939 and 1.048
same,"RPPA signal, antibody XRCC1.R.C",individual replicates,1.023 and 0.932 and 0.869
same,"RPPA signal, antibody YAP.R.C",individual replicates,1.026 and 0.858 and 1.131
same,"RPPA signal, antibody YAP_pS127.R.V",individual replicates,0.924 and 0.808 and 1.102
same,"RPPA signal, antibody YB1_pS102.R.V",individual replicates,0.854 and 0.995
same,"RPPA signal, antibody YES1.R.V",individual replicates,1.034 and 0.913 and 0.948
same,"RPPA signal, antibody YTHDF2.R.V",individual replicates,1.139 and 0.982 and 0.641
same,"RPPA signal, antibody YTHDF3.R.C",individual replicates,0.920 and 0.753
same,"RPPA signal, antibody ZAP.70.R.V",individual replicates,0.901 and 1.193
same,"RPPA signal, antibody ZEB1.R.V",individual replicates,0.874 and 1.035
same,C.Raf.R.C RPPA level,replicates,0.877 and 1.136
same,C.Raf_pS338.R.V RPPA level,replicates,1.205
same,CA9.R.C RPPA level,replicates,0.982 and 0.948 and 1.015
same,CD2.M.C RPPA level,replicates,1.000 and 0.961 and 1.133
same,CD4.R.V RPPA level,replicates,0.886 and 1.117
same,CD5.M.C RPPA level,replicates,1.034 and 0.973
same,CD20.R.C RPPA level,replicates,1.057 and 0.829 and 0.477
same,CD26.R.V RPPA level,replicates,0.893 and 1.128 and 0.797
same,CD29.M.V RPPA level,replicates,0.991 and 0.954 and 1.138
same,CD31.M.V RPPA level,replicates,1.000 and 0.925 and 1.157
same,CD38.R.C RPPA level,replicates,0.963 and 1.191 and 1.116
same,CD44.R.C RPPA level,replicates,0.984 and 0.955 and 0.823
same,CD45.M.V RPPA level,replicates,1.027 and 0.978 and 1.076
same,CD49b.M.V RPPA level,replicates,1.059 and 0.901 and 0.919
same,CD68.M.C RPPA level,replicates,1.053 and 0.950 and 1.032
same,CD74.M.V RPPA level,replicates,0.953
same,CD134.R.V RPPA level,replicates,1.004 and 0.980 and 1.076
same,CD171.M.V RPPA level,replicates,0.646 and 0.896 and 0.990
same,CDK1_pT14.R.C RPPA level,replicates,0.964 and 1.128
same,CDK9.R.V RPPA level,replicates,1.046 and 0.940 and 0.953
same,CDKN2A.R.C RPPA level,replicates,1.033 and 0.974 and 1.120
same,CDT1.R.V RPPA level,replicates,1.009 and 1.034
same,CENP.A.R.V RPPA level,replicates,1.061 and 0.838 and 0.961
same,CIITA.R.C RPPA level,replicates,0.973 and 0.944 and 0.768
same,COG3.R.V RPPA level,replicates,1.020 and 1.162 and 1.108
same,CRABP1.R.C RPPA level,replicates,1.003 and 1.061
same,CRABP2.R.V RPPA level,replicates,1.206 and 0.955 and 0.945
same,CREB_pS133.R.C RPPA level,replicates,0.945 and 1.492 and 0.936
same,CSK.R.C RPPA level,replicates,1.015 and 1.119 and 0.620
same,Calnexin.R.V RPPA level,replicates,0.967 and 1.097
same,Caspase.3.cleaved.R.C RPPA level,replicates,0.926 and 1.159
same,Caspase.7.cleaved..R.C RPPA level,replicates,0.858 and 1.158
same,Caspase.8.M.Q RPPA level,replicates,1.096 and 0.944
same,Caspase.8.cleaved.R.C RPPA level,replicates,0.924 and 1.111 and 1.128
same,Caveolin.1.R.V RPPA level,replicates,0.498 and 0.935 and 1.046
same,Cdc6.R.V RPPA level,replicates,0.936
same,Cdc42.R.C RPPA level,replicates,0.966 and 1.031
same,Chk1.M.C RPPA level,replicates,1.078 and 0.961
same,Chk1_pS296.R.V RPPA level,replicates,0.982 and 1.154 and 1.114
same,Chk1_pS345.R.C RPPA level,replicates,1.000 and 1.084 and 0.861
same,Chk2.M.V RPPA level,replicates,1.157 and 0.671
same,Chk2_pT68.R.C RPPA level,replicates,0.939 and 1.327 and 1.189
same,Claudin.7.R.V RPPA level,replicates,1.057 and 0.909 and 0.755
same,Collagen.VI.R.V RPPA level,replicates,1.076 and 0.844 and 1.257
same,Complex.II.Subunit.M.V RPPA level,replicates,1.008 and 1.014 and 0.777
same,Connexin.43.R.C RPPA level,replicates,1.009 and 1.236
same,Coup.TFII.R.C RPPA level,replicates,0.833 and 1.226
same,Cox2.R.C RPPA level,replicates,1.024 and 0.895 and 1.250
same,Cox.IV.R.V RPPA level,replicates,0.999 and 1.060 and 1.025
same,Creb.R.C RPPA level,replicates,1.026 and 1.133 and 1.082
same,CtIP.R.V RPPA level,replicates,0.829 and 1.057 and 0.997
same,Cyclin.B1.R.V RPPA level,replicates,1.136 and 0.725 and 1.229
same,Cyclin.D1.R.C RPPA level,replicates,1.048 and 0.891 and 1.065
same,Cyclin.D3.M.V RPPA level,replicates,1.309 and 1.005 and 0.824
same,Cyclin.E1.R.V RPPA level,replicates,1.096 and 0.925 and 0.965
same,Cyclophilin.F.M.V RPPA level,replicates,0.978 and 1.019 and 0.727
same,D.a.Tubulin.R.V RPPA level,replicates,0.975 and 1.193
same,DAPK1_pS308.M.C RPPA level,replicates,1.267 and 0.870 and 0.330
same,DAPK2.R.C RPPA level,replicates,0.970 and 1.126 and 1.124
same,DDB.1.R.V RPPA level,replicates,0.890 and 0.958 and 1.524
same,DDR1.R.V RPPA level,replicates,1.024 and 0.829 and 1.002
same,DDR1_pY513.R.C RPPA level,replicates,1.024 and 0.961 and 1.078
same,DJ1.R.V RPPA level,replicates,1.007 and 1.125
same,DM.Histone.H3.R.V RPPA level,replicates,0.950 and 1.152 and 1.117
same,DM.K9.Histone.H3.M.V RPPA level,replicates,1.035 and 0.996
same,DNA.Ligase.IV.R.C RPPA level,replicates,1.015 and 1.171 and 1.125
same,DNA_POLG.R.V RPPA level,replicates,1.082 and 0.866 and 0.834
same,c.Jun_pS73.R.V RPPA level,replicates,0.903 and 1.005
same,c.Kit.R.V RPPA level,replicates,1.119 and 0.884 and 0.682
same,c.Met_pY1234_Y1235.R.V RPPA level,replicates,0.935 and 1.110 and 1.140
same,c.Myc.R.C RPPA level,replicates,1.016 and 0.996 and 1.017
same,cGAS.R.V RPPA level,replicates,1.013 and 0.955
same,cdc2_pY15.R.C RPPA level,replicates,0.982 and 1.425 and 1.193
same,cdc25C.R.V RPPA level,replicates,0.985 and 0.925 and 0.943
same,RPPA MYH11.R.C,single replicates,1.049 and 0.899 and 0.794
same,RPPA Myosin.IIa.R.C,single replicates,0.881 and 0.604
same,RPPA Myosin.IIa_pS1943.R.V,single replicates,1.019 and 0.869 and 0.642
same,RPPA Myt1.R.C,single replicates,0.900
same,RPPA N.Cadherin.R.V,single replicates,1.025 and 0.927 and 1.105
same,RPPA N.Ras.M.V,single replicates,1.017 and 0.997
same,RPPA NAPSIN.A.R.C,single replicates,0.989 and 1.114 and 1.136
same,RPPA NDRG1_pT346.R.V,single replicates,0.757 and 1.000 and 1.113
same,RPPA NDUFB4.R.V,single replicates,1.030 and 0.897
same,RPPA NRF2.R.C,single replicates,0.980 and 1.023 and 1.172
same,RPPA Notch1.R.V,single replicates,0.979 and 0.930
same,RPPA Notch1.cleaved.R.V,single replicates,0.872 and 1.026
same,RPPA Notch3.R.C,single replicates,0.916 and 1.149
same,RPPA Oct.4.R.C,single replicates,1.033 and 1.165 and 1.085
same,RPPA P.Cadherin.R.C,single replicates,0.913 and 1.419 and 0.819
same,RPPA PAI.1.M.V,single replicates,0.893 and 0.953 and 1.083
same,RPPA PAICS.R.C,single replicates,1.002 and 0.988 and 0.707
same,RPPA PAK1.R.V,single replicates,1.101
same,RPPA PAK4.R.V,single replicates,0.901 and 0.983
same,RPPA PAK_pS474_S602_S560.R.V,single replicates,1.077 and 0.883 and 0.855
same,RPPA PAK_pT423_T402.R.C,single replicates,0.941 and 1.054 and 0.768
same,RPPA PAR.R.C,single replicates,1.057 and 2.014 and 0.910
same,RPPA PARG.R.C,single replicates,0.916 and 0.961 and 1.160
same,RPPA PARP.R.V,single replicates,0.918 and 1.359 and 0.791
same,RPPA PAX6.R.V,single replicates,0.958 and 1.096
same,RPPA PAX8.R.C,single replicates,1.084 and 0.915 and 0.888
same,RPPA PCNA.M.C,single replicates,0.983 and 0.768
same,RPPA PD.1.R.V,single replicates,1.028 and 0.932 and 1.016
same,RPPA PD.L1.R.C,single replicates,0.986 and 1.136
same,RPPA PDH.M.V,single replicates,1.030 and 0.955 and 1.162
same,RPPA PDHA1.R.V,single replicates,0.999 and 1.134 and 1.104
same,RPPA PDHK1.R.C,single replicates,0.895 and 1.143 and 1.132
same,RPPA PDK1.R.V,single replicates,0.979 and 1.236 and 0.914
same,RPPA PDK1_pS241.R.V,single replicates,1.012 and 1.286 and 1.116
same,RPPA PEA.15.R.V,single replicates,0.973 and 1.022 and 0.716
same,RPPA PEA.15_pS116.R.V,single replicates,1.025 and 1.082
same,RPPA PERK.R.V,single replicates,0.799 and 0.886
same,RPPA PGM1.R.V,single replicates,0.922
same,RPPA PHGDH.R.C,single replicates,1.026 and 1.054 and 1.162
same,RPPA PHLPP.R.V,single replicates,1.309 and 0.725 and 0.733
same,RPPA PI3K.p85.R.C,single replicates,0.979
same,RPPA PI3K.p110.a.R.C,single replicates,0.889 and 1.115 and 1.166
same,RPPA PI3K.p110.b.M.C,single replicates,1.076 and 0.970 and 0.893
same,RPPA PKA.a.R.V,single replicates,1.082 and 0.998 and 0.958
same,RPPA PKC.a.b.II_pT638_T641.R.V,single replicates,0.773 and 0.933
same,RPPA PKC.b.II_pS660.R.V,single replicates,0.932 and 1.415 and 1.139
same,RPPA PKCa.R.V,single replicates,0.879 and 2.309 and 1.199
same,RPPA PKM2.R.C,single replicates,0.777
same,RPPA PLC.gamma1.R.V,single replicates,1.266 and 0.848 and 0.796
same,RPPA PLC.gamma1_pS1248.R.V,single replicates,1.131 and 1.203 and 0.848
same,RPPA PLC.gamma2_pY759.R.V,single replicates,0.953
same,RPPA PLK1.R.C,single replicates,0.988 and 0.536 and 1.237
same,RPPA PMS2.R.V,single replicates,1.054 and 0.898 and 0.867
same,RPPA PR.R.V,single replicates,1.016 and 0.968 and 1.112
same,RPPA PRAS40.M.C,single replicates,1.006 and 0.977 and 0.990
same,RPPA PRAS40_pT246.R.V,single replicates,0.957 and 1.288 and 0.838
same,RPPA PRC1_pT481.R.C,single replicates,0.841 and 0.955
same,RPPA PREX1.R.V,single replicates,0.972 and 0.995 and 1.201
same,RPPA PTEN.R.V,single replicates,0.880 and 1.147
same,RPPA PTPN12.R.V,single replicates,1.009 and 1.217 and 1.054
same,RPPA PYGB.R.V,single replicates,0.990 and 0.966 and 0.675
same,RPPA PYGM.M.C,single replicates,1.013 and 0.953 and 0.526
same,RPPA Patched.R.C,single replicates,0.925 and 1.120 and 1.169
same,RPPA Paxillin.R.C,single replicates,0.754 and 1.008 and 1.170
same,RPPA Pdcd4.R.C,single replicates,0.973 and 1.288 and 1.207
same,RPPA Porin.M.V,single replicates,1.021 and 0.963 and 0.824
same,RPPA Puma.R.C,single replicates,1.003 and 0.771
same,RPPA Pyk2_pY402.R.C,single replicates,0.977 and 1.146 and 1.149
same,RPPA RBM15.R.V,single replicates,0.950 and 1.004 and 0.982
